Reference: publication PMC9946977, “Identification of linderalactone as a natural inhibitor of SHP2 to ameliorate CCl4-induced liver fibrosis” (Frontiers in Pharmacology, 2023)

Target: T1, SHP2 PTP domain (Homo sapiens, UniProt Q06124)
T1 construct: Human SHP2 PTP domain (A237–I529) expression constructs; His-tag; made in house; host or cells: E. coli BL21 (DE3)
T1 sequence (Q06124 237-529): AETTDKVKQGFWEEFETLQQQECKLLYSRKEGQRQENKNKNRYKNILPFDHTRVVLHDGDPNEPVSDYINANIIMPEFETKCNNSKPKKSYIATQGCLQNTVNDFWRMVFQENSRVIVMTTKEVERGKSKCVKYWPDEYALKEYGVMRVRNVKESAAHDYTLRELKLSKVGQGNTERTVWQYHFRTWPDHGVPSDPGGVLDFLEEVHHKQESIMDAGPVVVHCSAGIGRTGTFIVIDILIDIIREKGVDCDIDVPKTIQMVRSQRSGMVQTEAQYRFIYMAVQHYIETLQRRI
Assay: SHP2 inhibition assay (DiFMUP) with SHP2-PTP; HTS and dose-response
Assay type: biochemical
Conditions: 0.5 nM SHP2-PTP, DiFMUP substrate, 30 min co-incubation at 20°C; read-out: IC50 against the SHP2 PTP domain
Protocol: Human SHP2 PTP domain (A237–I529) expression constructs were engineered by cloning PTPN11 (NP_002825.3) into the pET30 plasmid with a His-tag to support further protein purification. The K366A/Q510A double mutation was introduced into the wild-type template using a site-directed mutagenesis kit (E0554S; New England Biolabs). The expression constructs were sequenced and transformed into BL21 (DE3)-competent cells. E. coli cells were grown at 37°C in an LB culture medium in the presence of […] kanamycin until the OD600 reached 1.0. The medium was then cooled to 18°C and 1 mM isopropyl ß-D-1-thiogalactopyranoside (IPTG) was added to induce protein expression overnight.
A surrogate phosphatase substrate, 6,8-difluoro-4-methylumbelliferyl phosphate (DiFMUP, Thermo Fisher, #D22065), was used to monitor the catalytic activity of SHP2 in a prompt fluorescence assay format. Specifically, the DiFMUP phosphatase assay was performed at 20°C in a 384-well Griener CELLSTAR black polystyrene plate in the buffer condition of 60 mM HEPES (pH7.5), 75 mM NaCl, 75 mM KCl, 1 mM EDTA, 0.05% Tween-20, 5 mM dithiothreitol (DTT). The final reaction volume was 25 μL. NP compound libraries were obtained from TargetMol at a stock concentration of 10 mM, dissolved in DMSO. The purity of the active compound LIN used in this study is 96.27% as tested by HPLC analysis. The HPLC traces is shown in Supporting Information. We co-incubated 0.5 nM of SHP2-PTP enzyme with tested NPs for 30 min at 20°C, followed by the addition of DiFMUP into the reaction. After 30 min, 5 μL of bpV(phen) solution was added to quench the dephosphorylation reaction. The signals were read on a plate reader (SpectraMax iD5, Molecular Devices). The excitation and emission wavelengths were 340 and 450 nm, respectively. The inhibitor dose-response curves were evaluated using a normalised IC50 regression curve fitting with control-based normalisation. For the full-length SHP2 inhibition assay, 0.5 μM of a bisphosphorylated pIRS-1 peptide (ChinaPeptides Ltd. Shanghai) was added for partial SHP2 activation. […]

Compound: C=C1C2CC2[C@@]2(C)Cc3occ(C)c3C(O)C12 (stereo partly shown) [Lindenenol, lindenenol]
- IC50: 12.6 ± 4.2 µM
